In patent US12653894B2, “Degradation of FAK or FAK and ALK by conjugation of FAK and ALK inhibitors with E3 ligase ligands and methods of use” (DANA-FARBER CANCER INSTITUTE, INC., priority 2018, dated 2026):
Entries after “also recorded” stand apart in the source; their conditions may differ.

Experiments:
[1] = biological target: T1, FAK (Homo sapiens, UniProt Q05397); experiment: FAK degradation by immunoblot in H3122 cells; type: cell-based; parameters: endogenous in cells; host or cells: H3122; conditions: 10 nM to 1000 nM, 16 hours (compound 10) or 24 hours (compounds 1, 9)
T1 sequence (Q05397 whole entry): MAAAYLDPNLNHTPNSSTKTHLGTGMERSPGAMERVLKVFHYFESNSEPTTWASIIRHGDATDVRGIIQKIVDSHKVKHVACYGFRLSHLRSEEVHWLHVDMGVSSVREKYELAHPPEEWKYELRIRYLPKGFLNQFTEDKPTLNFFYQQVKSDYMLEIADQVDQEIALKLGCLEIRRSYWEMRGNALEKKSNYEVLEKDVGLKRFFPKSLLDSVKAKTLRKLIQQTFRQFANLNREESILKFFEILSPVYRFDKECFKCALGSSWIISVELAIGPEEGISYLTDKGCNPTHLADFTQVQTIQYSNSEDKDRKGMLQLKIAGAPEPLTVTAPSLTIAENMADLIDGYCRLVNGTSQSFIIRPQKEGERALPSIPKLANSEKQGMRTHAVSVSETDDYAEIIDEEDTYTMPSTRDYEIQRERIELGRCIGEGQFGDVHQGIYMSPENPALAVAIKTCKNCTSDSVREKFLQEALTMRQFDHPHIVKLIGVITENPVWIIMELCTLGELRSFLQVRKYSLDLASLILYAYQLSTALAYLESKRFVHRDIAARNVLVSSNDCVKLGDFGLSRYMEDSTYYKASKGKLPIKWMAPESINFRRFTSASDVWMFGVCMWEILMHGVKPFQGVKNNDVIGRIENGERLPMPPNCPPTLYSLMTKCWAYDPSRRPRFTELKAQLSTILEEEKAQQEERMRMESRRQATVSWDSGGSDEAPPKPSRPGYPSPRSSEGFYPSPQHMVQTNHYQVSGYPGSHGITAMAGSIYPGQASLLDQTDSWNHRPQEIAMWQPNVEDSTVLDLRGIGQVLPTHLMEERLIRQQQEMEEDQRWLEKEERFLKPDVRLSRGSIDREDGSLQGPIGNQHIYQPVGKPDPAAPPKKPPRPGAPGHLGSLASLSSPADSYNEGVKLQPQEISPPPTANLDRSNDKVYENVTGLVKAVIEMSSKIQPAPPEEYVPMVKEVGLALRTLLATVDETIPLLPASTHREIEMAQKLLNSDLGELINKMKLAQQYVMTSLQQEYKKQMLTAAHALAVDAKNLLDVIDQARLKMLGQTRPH

[2] = biological target: T2, FAK (Mus musculus, UniProt P34152); experiment: In vivo FAK degradation in mouse livers; conditions: nude mice, 10 to 50 mpk intraperitoneal, three consecutive days, 4 hours after final treatment
T2 construct: from tissue; host or cells: liver of nude mice
T2 sequence (P34152 whole entry): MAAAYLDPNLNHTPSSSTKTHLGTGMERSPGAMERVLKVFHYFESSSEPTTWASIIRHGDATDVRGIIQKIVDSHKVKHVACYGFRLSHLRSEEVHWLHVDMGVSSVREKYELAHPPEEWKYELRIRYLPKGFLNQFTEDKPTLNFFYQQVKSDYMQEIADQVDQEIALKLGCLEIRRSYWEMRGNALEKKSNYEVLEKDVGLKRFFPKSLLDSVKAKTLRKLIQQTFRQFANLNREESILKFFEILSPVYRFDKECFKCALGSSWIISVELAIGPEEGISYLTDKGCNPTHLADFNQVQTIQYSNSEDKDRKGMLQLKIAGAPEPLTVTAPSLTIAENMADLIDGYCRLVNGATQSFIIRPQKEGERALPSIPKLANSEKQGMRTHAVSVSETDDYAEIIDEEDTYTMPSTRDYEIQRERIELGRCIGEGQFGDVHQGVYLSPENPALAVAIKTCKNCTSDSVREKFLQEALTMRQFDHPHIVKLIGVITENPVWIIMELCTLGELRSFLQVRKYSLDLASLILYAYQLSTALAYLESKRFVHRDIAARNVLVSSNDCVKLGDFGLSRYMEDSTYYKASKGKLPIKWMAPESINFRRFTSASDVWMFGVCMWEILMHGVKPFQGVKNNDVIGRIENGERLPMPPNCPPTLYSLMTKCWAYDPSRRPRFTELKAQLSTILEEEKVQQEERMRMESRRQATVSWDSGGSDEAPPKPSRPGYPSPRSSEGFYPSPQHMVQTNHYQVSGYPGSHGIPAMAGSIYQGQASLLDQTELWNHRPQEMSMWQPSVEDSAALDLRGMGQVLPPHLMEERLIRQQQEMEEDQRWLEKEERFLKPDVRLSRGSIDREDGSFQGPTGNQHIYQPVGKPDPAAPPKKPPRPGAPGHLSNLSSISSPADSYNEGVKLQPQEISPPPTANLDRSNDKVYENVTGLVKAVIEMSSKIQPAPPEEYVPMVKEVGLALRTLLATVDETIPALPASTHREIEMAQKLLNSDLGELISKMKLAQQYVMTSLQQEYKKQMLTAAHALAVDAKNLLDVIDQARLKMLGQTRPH
Method: (§1) Mice were treated for three consecutive days and assessments were performed 4 hours after the third and final treatment.
(§2) PA-TU-8988T cells were implanted into the flanks of nude mice. After tumors had formed, mice were treated with indicated FAK degraders for three consecutive days via intraperitoneal administration and sacrificed 4 hours after the third and final treatment. Tumors and livers were harvested and lysed in RIPA on ice for 60 minutes and lysates were clarified by centrifugation. Immunoblotting for FAK was performed to evaluate changes in protein levels upon FAK degrader administration. All samples were run with equal total protein content and immunoblotting was performed using antibodies that detect total FAK protein as well as α-Tubulin as a loading control. Fluorescently labelled infrared secondary antibodies that enable detection using an Odyssey® CLx Imager was employed to evaluate protein levels.

[3] = biological target: T1, FAK; experiment: FAK degradation by immunoblot in PA-TU-8988T cells; type: cell-based; parameters: endogenous in cells; host or cells: PA-TU-8988T; conditions: PA-TU-8988T cells, 4 hours; for Degradation of FAK protein (in words): 0.1 nM to 1000 nM, immunoblot; for inhibition at 0.01 µM / inhibition at 0.1 µM: PaTu 8988t, total FAK protein, vs DMSO; for inhibition at 0.01 µM: 10 nM, read-out: Degradation at 10 nM; for inhibition at 0.1 µM: 100 nM, read-out: Degradation at 100 nM
Method: (§3) Immunoblotting for FAK was performed to evaluate changes in protein levels upon FAK degrader treatment. All samples were run with equal total protein content and immunoblotting was performed using antibodies that detect total FAK protein as well as GAPDH or α-Tubulin as a loading control. Fluorescently labelled infrared secondary antibodies that enable detection using an Odyssey® CLx Imager was employed to evaluate protein levels.
FAK degraders were evaluated in immunoblot assays to determine the effective dose required to achieve FAK protein loss. Immunoblots for FAK protein were normalized relative to the loading control and percent degradation was evaluated compared to DMSO treatment.

[4] = biological target: T3, ALK (Homo sapiens, UniProt Q9UM73); experiment: ALK degradation by immunoblot in H3122 cells; type: cell-based; parameters: endogenous in cells; host or cells: H3122; the other entry of the earlier key: EML4 (Q9HC35, Echinoderm microtubule-associated protein-like 4); conditions: 10 nM to 1000 nM, 16 hours (compound 10) or 24 hours (compounds 1, 9)
Target sequence in this assay (Q9UM73 with tags, fused parts or gaps): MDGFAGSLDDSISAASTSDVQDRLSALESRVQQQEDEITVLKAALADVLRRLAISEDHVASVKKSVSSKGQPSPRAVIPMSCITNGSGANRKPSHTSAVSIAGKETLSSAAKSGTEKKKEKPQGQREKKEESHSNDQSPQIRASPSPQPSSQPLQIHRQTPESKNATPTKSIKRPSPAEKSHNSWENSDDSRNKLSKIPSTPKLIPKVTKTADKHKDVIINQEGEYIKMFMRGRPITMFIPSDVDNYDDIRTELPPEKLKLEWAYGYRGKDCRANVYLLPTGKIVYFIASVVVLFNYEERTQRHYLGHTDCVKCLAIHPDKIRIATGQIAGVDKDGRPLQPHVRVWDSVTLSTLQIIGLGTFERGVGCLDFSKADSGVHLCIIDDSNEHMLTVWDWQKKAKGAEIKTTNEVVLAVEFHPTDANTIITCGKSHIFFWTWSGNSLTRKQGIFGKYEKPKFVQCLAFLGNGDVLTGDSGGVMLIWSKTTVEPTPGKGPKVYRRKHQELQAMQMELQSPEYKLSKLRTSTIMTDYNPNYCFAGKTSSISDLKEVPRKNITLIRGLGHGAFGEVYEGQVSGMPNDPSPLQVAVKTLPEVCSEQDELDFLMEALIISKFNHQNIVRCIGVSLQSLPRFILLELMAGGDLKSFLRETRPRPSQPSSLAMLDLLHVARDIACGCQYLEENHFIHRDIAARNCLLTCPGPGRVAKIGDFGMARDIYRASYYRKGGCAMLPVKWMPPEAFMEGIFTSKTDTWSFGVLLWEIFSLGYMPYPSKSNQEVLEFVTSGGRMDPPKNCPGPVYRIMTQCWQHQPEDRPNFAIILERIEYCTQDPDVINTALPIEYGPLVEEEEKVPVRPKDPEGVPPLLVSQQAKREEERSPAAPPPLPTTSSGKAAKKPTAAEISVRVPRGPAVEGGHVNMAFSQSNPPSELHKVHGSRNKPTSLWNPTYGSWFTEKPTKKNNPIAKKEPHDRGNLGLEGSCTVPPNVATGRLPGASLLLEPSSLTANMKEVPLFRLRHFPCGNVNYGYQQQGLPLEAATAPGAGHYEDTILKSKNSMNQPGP
Target sequence in this assay (Q96SW2 whole entry partner): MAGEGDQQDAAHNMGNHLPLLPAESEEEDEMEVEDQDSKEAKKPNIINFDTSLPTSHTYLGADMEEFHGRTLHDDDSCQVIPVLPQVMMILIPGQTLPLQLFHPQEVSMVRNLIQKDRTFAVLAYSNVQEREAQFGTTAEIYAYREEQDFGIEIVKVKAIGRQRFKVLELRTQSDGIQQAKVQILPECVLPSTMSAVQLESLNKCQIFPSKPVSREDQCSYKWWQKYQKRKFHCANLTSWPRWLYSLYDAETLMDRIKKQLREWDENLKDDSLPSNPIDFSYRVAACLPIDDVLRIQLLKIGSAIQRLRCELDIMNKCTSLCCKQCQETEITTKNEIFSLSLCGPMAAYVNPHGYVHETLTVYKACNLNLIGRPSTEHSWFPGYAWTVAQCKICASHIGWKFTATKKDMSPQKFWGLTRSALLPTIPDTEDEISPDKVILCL

[5] = biological target: T1, FAK; experiment: In vivo FAK degradation in PA-TU-8988T xenograft tumors; parameters: endogenous in cells; host or cells: PA-TU-8988T; conditions: nude mice, 10 to 50 mpk intraperitoneal, three consecutive days, 4 hours after final treatment
Method: as §1, §2

[6] = test system: kinome; experiment: KINOMEscan competition binding assays; conditions: 1000 nM, compared to VS-4718
Method: KINOMEscan® competition binding assays with inventive compound 13 and VS-4718 were performed by DiscovrX at 1000 nM. […] Additionally, despite the observed activity of compound 13 on ALK, degradation of ALK with compound 9 was not observed (FIG. 6B).

[7] = biological target: T1, FAK; experiment: In vitro kinase assay (Life Technologies), FAK; conditions: ATP concentration = Km, duplicate; read-out: Biochemical IC50 FAK
Method: (§4) In vitro kinase assays with inventive compound 13 and VS-4718 were performed by Life Technologies™ in duplicate at an ATP concentration=Km for each indicated kinase. The results are summarized in Table 2 and indicate that inventive compound 13 maintained potent FAK activity, with improved activity on ALK as compared to VS-4718.

[8] = biological target: T3, ALK; experiment: In vitro kinase assay (Life Technologies), ALK; parameters: purchased Life Technologies; conditions: ATP concentration = Km, duplicate; read-out: Biochemical IC50 ALK
Method: as §4

[9] = biological target: T1, FAK; experiment: Rescue of compound 9-induced FAK degradation in PA-TU-8988T cells after pre-treatment; type: cell-based; parameters: endogenous in cells; host or cells: PA-TU-8988T; conditions: pre-treatment 2 hours (0.5 μM carfilzomib, 1.0 μM MLN4924, 10 μM lenalidomide, 10 μM compound 13), then 10 nM compound 9 for 4 hours
Method: as §3, with “PA-TU-8988T cells were treated with FAK degraders or indicated inhibitors for four hours at the indicated doses. After four hours, PA-TU-8988T cells were lysed in radioimmunoprecipitation assay (RIPA) buffer (Thermo Scientific™) on ice for 60 minutes and lysates were clarified by centrifugation. Immunoblotting” for “Immunoblotting”

SMILES	Degradation of FAK protein in H3122 cells (in words) [1]	Degradation of FAK protein in mouse livers [2]	Degradation of FAK protein (in words) [3]	inhibition at 0.01 µM [3] [%]	inhibition at 0.1 µM [3] [%]	Degradation of ALK protein in H3122 cells (in words) [4]	Degradation of FAK protein in PA-TU-8988T xenograft tumors [5]	Kinome-wide selectivity [6]	IC50 [7] [nM]	IC50 [8] [nM]	Rescue of FAK degradation induced by compound 9 [9]
CNC(=O)c1ccccc1Nc1cc(Nc2cc(C)c(C3CCN(CCCCCCNC(=O)COc4cccc5c4C(=O)N(C4CCC(=O)NC4=O)C5=O)CC3)cc2OC(C)C)ncc1C(F)(F)F (centres unmarked) [Compound 9, 2-((2-((4-(1-(6-(2-((2-(2,6-dioxopiperidin-3-yl)-1,3-dioxoisoindolin-4-yl)oxy)acetamido)hexyl)piperidin-4-yl)-2-isopropoxy-5-methylphenyl)amino)-5-(trifluoromethyl)pyridin-4-yl)amino)-N-methylbenzamide]	pronounced degradation of FAK protein	pronounced degradation of FAK protein	rapid and pronounced degradation of FAK protein	85 to 100	85 to 100	do not show degradation of ALK; also recorded: not observed	pronounced degradation of FAK protein				
CNC(=O)c1ccccc1Nc1cc(Nc2cc(C)c(C3CCNCC3)cc2OC(C)C)ncc1C(F)(F)F [Compound 13]			did not induce degradation of FAK protein	0 to 24	0 to 24			improved kinome-wide selectivity	21	26.3	rescued the degradation induced by compound 9
